Laboratory results as given in ChEMBL document CHEMBL4138123, “Design, synthesis and biological evaluation of novel pyrazolochalcones as potential modulators of PI3K/Akt/mTOR pathway and inducers of apoptosis in breast cancer cells” (Eur J Med Chem, 2017).

Tests used:
NCI-H322M = experiment: Cytotoxicity against human NCI-H322M cells assessed as growth inhibition after 48 hrs by sulforhodamine B assay; assay type: functional; conditions: for CC50: read-out: LC50 (the source's name)
HCC 2998 = experiment: Cytotoxicity against human HCC2998 cells assessed as growth inhibition after 48 hrs by sulforhodamine B assay; assay type: functional; conditions: HCC 2998, 48 h
SW-620 [1] = experiment: Cytotoxicity against human SW620 cells assessed as growth inhibition after 48 hrs by sulforhodamine B assay; assay type: functional; conditions: SW-620, 48 h
UACC-257 = experiment: Cytotoxicity against human UACC257 cells assessed as growth inhibition after 48 hrs by sulforhodamine B assay; assay type: functional; conditions: UACC-257, 48 h
SK-OV-3 = experiment: Cytotoxicity against human SKOV3 cells assessed as growth inhibition after 48 hrs by sulforhodamine B assay; assay type: functional; conditions: SK-OV-3, 48 h
MCF7 [2] = experiment: Cytotoxicity against human MCF7 cells assessed as growth inhibition after 48 hrs by MTT assay; assay type: functional, cell-based; conditions: MCF7, 48 h
OVCAR-5 = experiment: Cytotoxicity against human OVCAR5 cells assessed as cell growth at 0.01 uM after 48 hrs by sulforhodamine B assay relative to control; assay type: functional; conditions: OVCAR-5, 48 h, read-out: Activity
OVCAR-4 = experiment: Cytotoxicity against human OVCAR4 cells assessed as cell growth at 0.01 uM after 48 hrs by sulforhodamine B assay relative to control; assay type: functional; conditions: OVCAR-4, 48 h, read-out: Activity
SF-268 [3] = experiment: Cytotoxicity against human SF268 cells assessed as cell growth at 0.01 uM after 48 hrs by sulforhodamine B assay relative to control; assay type: functional; conditions: SF-268, 48 h, read-out: Activity
KM12 = experiment: Cytotoxicity against human KM12 cells assessed as cell growth at 0.01 uM after 48 hrs by sulforhodamine B assay relative to control; assay type: functional; conditions: KM12, 48 h, read-out: Activity
COLO 205 = experiment: Cytotoxicity against human COLO205 cells assessed as cell growth at 0.01 uM after 48 hrs by sulforhodamine B assay relative to control; assay type: functional; conditions: COLO 205, 48 h, read-out: Activity
HOP-62 = experiment: Cytotoxicity against human HOP62 cells assessed as cell growth at 0.01 uM after 48 hrs by sulforhodamine B assay relative to control; assay type: functional; conditions: HOP-62, 48 h, read-out: Activity
MOLT-4 [4] = experiment: Cytotoxicity against human MOLT4 cells assessed as cell growth at 0.01 uM after 48 hrs by sulforhodamine B assay relative to control; assay type: functional; conditions: MOLT-4, 48 h, read-out: Activity
MDA-MB-231 = experiment: Cytotoxicity against human MDA-MB-231 cells assessed as cell growth at 0.01 uM after 48 hrs by sulforhodamine B assay relative to control; assay type: functional; conditions: MDA-MB-231, 48 h, read-out: Activity
BT-549 = experiment: Cytotoxicity against human BT549 cells assessed as cell growth at 0.01 uM after 48 hrs by sulforhodamine B assay relative to control; assay type: functional; conditions: BT-549, 48 h, read-out: Activity
SW-620 [5] = experiment: Cytotoxicity against human SW620 cells assessed as cell growth at 0.1 uM after 48 hrs by sulforhodamine B assay relative to control; assay type: functional; conditions: SW-620, 48 h, read-out: Activity
IGROV-1 = experiment: Cytotoxicity against human IGROV1 cells assessed as cell growth at 0.1 uM after 48 hrs by sulforhodamine B assay relative to control; assay type: functional; conditions: IGROV-1, 48 h, read-out: Activity
CCRF-CEM = experiment: Cytotoxicity against human CCRF-CEM cells assessed as cell growth at 1 uM after 48 hrs by sulforhodamine B assay relative to control; assay type: functional; conditions: read-out: Activity
MOLT-4 [6] = experiment: Cytotoxicity against human MOLT4 cells assessed as cell growth at 1 uM after 48 hrs by sulforhodamine B assay relative to control; assay type: functional; conditions: MOLT-4, 48 h, read-out: Activity
SF-268 [7] = experiment: Cytotoxicity against human SF268 cells assessed as cell growth at 1 uM after 48 hrs by sulforhodamine B assay relative to control; assay type: functional; conditions: SF-268, 48 h, read-out: Activity
SNB-19 = experiment: Cytotoxicity against human SNB19 cells assessed as cell growth at 1 uM after 48 hrs by sulforhodamine B assay relative to control; assay type: functional; conditions: SNB-19, 48 h, read-out: Activity
SK-MEL-28 = experiment: Cytotoxicity against human SK-MEL-28 cells assessed as cell growth at 1 uM after 48 hrs by sulforhodamine B assay relative to control; assay type: functional; conditions: SK-MEL-28, 48 h, read-out: Activity
A498 = experiment: Cytotoxicity against human A498 cells assessed as cell growth at 1 uM after 48 hrs by sulforhodamine B assay relative to control; assay type: functional; conditions: A498, 48 h, read-out: Activity
HL-60(TB) = experiment: Cytotoxicity against human HL-60(TB) cells assessed as cell growth at 10 uM after 48 hrs by sulforhodamine B assay relative to control; assay type: functional; conditions: HL-60, 48 h, read-out: Activity
SR = experiment: Cytotoxicity against human SR cells assessed as cell growth at 10 uM after 48 hrs by sulforhodamine B assay relative to control; assay type: functional; conditions: read-out: Activity
NCI-H23 = experiment: Cytotoxicity against human NCI-H23 cells assessed as cell growth at 10 uM after 48 hrs by sulforhodamine B assay relative to control; assay type: functional; conditions: NCI-H23, 48 h, read-out: Activity
SW-620 [8] = experiment: Cytotoxicity against human SW620 cells assessed as cell growth at 10 uM after 48 hrs by sulforhodamine B assay relative to control; assay type: functional; conditions: SW-620, 48 h, read-out: Activity
SF-268 [9] = experiment: Cytotoxicity against human SF268 cells assessed as cell growth at 10 uM after 48 hrs by sulforhodamine B assay relative to control; assay type: functional; conditions: SF-268, 48 h, read-out: Activity
Malme-3M = experiment: Cytotoxicity against human MALME-3M cells assessed as cell growth at 10 uM after 48 hrs by sulforhodamine B assay relative to control; assay type: functional; conditions: read-out: Activity
NCI/ADR-RES [10] = experiment: Cytotoxicity against human NCI/ADR-RES cells assessed as cell growth at 10 uM after 48 hrs by sulforhodamine B assay relative to control; assay type: functional; conditions: read-out: Activity
MCF7 [11] = experiment: Cytotoxicity against human MCF7 cells assessed as cell growth at 10 uM after 48 hrs by sulforhodamine B assay relative to control; assay type: functional; conditions: MCF7, 48 h, read-out: Activity
T47D = experiment: Cytotoxicity against human T47D cells assessed as cell growth at 10 uM after 48 hrs by sulforhodamine B assay relative to control; assay type: functional; conditions: read-out: Activity
A549 = experiment: Cytotoxicity against human A549/ATCC cells assessed as cell growth at 100 uM after 48 hrs by sulforhodamine B assay relative to control; assay type: functional; conditions: A549, 48 h, read-out: Activity
NCI-H460 = experiment: Cytotoxicity against human NCI-H460 cells assessed as cell growth at 100 uM after 48 hrs by sulforhodamine B assay relative to control; assay type: functional; conditions: NCI-H460, 48 h, read-out: Activity
NCI/ADR-RES [12] = experiment: Cytotoxicity against human NCI/ADR-RES cells assessed as cell growth at 100 uM after 48 hrs by sulforhodamine B assay relative to control; assay type: functional; conditions: read-out: Activity

Work on COc1ccc(-c2cc(/C=C/C(=O)c3ccc(OC)c(OC)c3)[nH]n2)cc1 yielded a GI50 (NCI-H322M) of 1.62 µM, a TGI (NCI-H322M) of 4.92 µM and a CC50 (NCI-H322M) of 18.7 µM. The GI50 (HCC 2998) was 2.02 µM, the LC50 (HCC 2998) was 7.81 µM and the TGI (HCC 2998) was 3.97 µM. The GI50 (SW-620 [1]) was 1.35 µM, the LC50 (lethal concentration, 50% net cell kill) (SW-620 [1]) was 9.54 µM and the TGI (SW-620 [1]) was 3.59 µM. For the same molecule, the GI50 (UACC-257) was 1.73 µM, the LC50 (UACC-257) was 7.72 µM and the TGI (UACC-257) was 3.65 µM. The GI50 (SK-OV-3) was 5.56 µM, the LC50 (SK-OV-3) was 43.4 µM and the TGI (SK-OV-3) was 17.1 µM. It also gave an IC50 (MCF7 [2]) of 0.5 µM, a growth at 0.01 µM (OVCAR-5) of 93% and a growth at 0.01 µM (OVCAR-4) of 88%. The growth at 0.01 µM (SF-268 [3]) was 101%, the growth at 0.01 µM (KM12) was 105% and the growth at 0.01 µM (COLO 205) was 103%. The growth at 0.01 µM (HOP-62) was 97%, the growth at 0.01 µM (MOLT-4 [4]) was 105% and the growth at 0.01 µM (MDA-MB-231) was 98%. For the same molecule, the growth at 0.01 µM (BT-549) was 100%, the growth at 0.1 µM (SW-620 [5]) was 99% and the growth at 0.1 µM (IGROV-1) was 91%. For the same molecule, the growth at 1 µM (CCRF-CEM) was 63%, the growth at 1 µM (MOLT-4 [6]) was 95% and the growth at 1 µM (SF-268 [7]) was 86%. It also gave a growth at 1 µM (SNB-19) of 80%, a growth at 1 µM (SK-MEL-28) of 90% and a growth at 1 µM (A498) of 69%. It also gave a growth at 10 µM (HL-60(TB)) of -21%, a growth at 10 µM (SR) of -29% and a growth at 10 µM (NCI-H23) of -24%. The growth at 10 µM (SW-620 [8]) was -52%, the growth at 10 µM (SF-268 [9]) was -40% and the growth at 10 µM (Malme-3M) was -70%. For the same molecule, the growth at 10 µM (NCI/ADR-RES [10]) was 15%, the growth at 10 µM (MCF7 [11]) was -82% and the growth at 10 µM (T47D) was -28%. It also gave a growth at 100 µM (A549) of -45%, a growth at 100 µM (NCI-H460) of -63% and a growth at 100 µM (NCI/ADR-RES [12]) of -22%.

In the case of COc1cc2c(cc1OC)C(=O)/C(=C/c1cc(-c3ccc4c(c3)OCO4)n[nH]1)C2, the GI50 (NCI-H322M) is reported as 1.54 µM, the TGI (NCI-H322M) is reported as 3.01 µM and the CC50 (NCI-H322M) is reported as 5.87 µM. The GI50 (HCC 2998) was 1.88 µM, the LC50 (HCC 2998) was 6.29 µM and the TGI (HCC 2998) was 3.44 µM. For the same molecule, the GI50 (SW-620 [1]) was 1.35 µM, the LC50 (lethal concentration, 50% net cell kill) (SW-620 [1]) was 8.96 µM and the TGI (SW-620 [1]) was 3.47 µM. It also gave a GI50 (UACC-257) of 1.71 µM, an LC50 (UACC-257) of 5.72 µM and a TGI (UACC-257) of 3.13 µM. For the same molecule, the GI50 (SK-OV-3) was 2.89 µM, the LC50 (SK-OV-3) was 25.2 µM and the TGI (SK-OV-3) was 7.16 µM. For the same molecule, the IC50 (MCF7 [2]) was 1.02 µM, the growth at 0.01 µM (OVCAR-5) was 102% and the growth at 0.01 µM (OVCAR-4) was 101%. The growth at 0.01 µM (SF-268 [3]) was 95%, the growth at 0.01 µM (KM12) was 100% and the growth at 0.01 µM (COLO 205) was 98%. For the same molecule, the growth at 0.01 µM (HOP-62) was 92%, the growth at 0.01 µM (MOLT-4 [4]) was 100% and the growth at 0.01 µM (MDA-MB-231) was 106%. The growth at 0.01 µM (BT-549) was 96%, the growth at 0.1 µM (SW-620 [5]) was 99% and the growth at 0.1 µM (IGROV-1) was 88%. It also gave a growth at 1 µM (CCRF-CEM) of 55%, a growth at 1 µM (MOLT-4 [6]) of 97% and a growth at 1 µM (SF-268 [7]) of 83%. It also gave a growth at 1 µM (SNB-19) of 84%, a growth at 1 µM (SK-MEL-28) of 105% and a growth at 1 µM (A498) of 69%. It also gave a growth at 10 µM (HL-60(TB)) of -29%, a growth at 10 µM (SR) of -24% and a growth at 10 µM (NCI-H23) of -63%. The growth at 10 µM (SW-620 [8]) was -56%, the growth at 10 µM (SF-268 [9]) was -75% and the growth at 10 µM (Malme-3M) was -70%. The growth at 10 µM (NCI/ADR-RES [10]) was -17%, the growth at 10 µM (MCF7 [11]) was -84% and the growth at 10 µM (T47D) was -90%. The growth at 100 µM (A549) was -65%, the growth at 100 µM (NCI-H460) was -67% and the growth at 100 µM (NCI/ADR-RES [12]) was -40%.
